{
  "source": "patent US20170151272A1",
  "about": "“A NOVEL PHARMACEUTICAL COMPOSITION OF […] RIBAVIRIN” (SANOVEL ILAC SANAYI VE TICARET ANONIM SIRKETI, priority 2014, published 2017)",
  "origin": "cited, not measured here",
  "tested_on": "chronic hepatitis C (CHC) infections",
  "details": "ribavirin alone",
  "data": [
    {"substance": "1-β-Dribofuranosyl-1H-1,2,4-triazole-3-carboxamide [Ribavirin]", "values": [
      {"measurement": "sustained virologic response", "result": "did not produce any sustained virologic response"},
      {"measurement": "HCV RNA levels", "setting": "during or after therapy", "result": "did not reduce"},
      {"measurement": "alanine aminotransferase (ALT) levels", "setting": "during the course of treatment, some patients with CHC", "result": "normalize W201 alanine aminotransferase (ALT) levels transiently"}
    ]}
  ]
}
